For 13 molecules, IC50 and inhibition results are on record in ChEMBL document CHEMBL3352194, “The discovery of benzenesulfonamide-based potent and selective inhibitors of voltage-gated sodium channel Na(v)1.7” (Bioorg Med Chem Lett, 2014).

Structures are written as SMILES. pIC50: −log10 of the molar value. Bounds are passed on as bounds.

The target in series [1] is Sodium channel protein type 9 subunit alpha (Homo sapiens, UniProt Q15858). Description: Inhibition of human Nav1.7 expressed in HEK cells assessed as reduction in sodium current at -60 mV holding potential by PatchXpress platform based whole cell patch clamp electrophysiological assay. On the set-up: species or system HEK293.
Sequence of Sodium channel protein type 9 subunit alpha (Q15858 whole entry): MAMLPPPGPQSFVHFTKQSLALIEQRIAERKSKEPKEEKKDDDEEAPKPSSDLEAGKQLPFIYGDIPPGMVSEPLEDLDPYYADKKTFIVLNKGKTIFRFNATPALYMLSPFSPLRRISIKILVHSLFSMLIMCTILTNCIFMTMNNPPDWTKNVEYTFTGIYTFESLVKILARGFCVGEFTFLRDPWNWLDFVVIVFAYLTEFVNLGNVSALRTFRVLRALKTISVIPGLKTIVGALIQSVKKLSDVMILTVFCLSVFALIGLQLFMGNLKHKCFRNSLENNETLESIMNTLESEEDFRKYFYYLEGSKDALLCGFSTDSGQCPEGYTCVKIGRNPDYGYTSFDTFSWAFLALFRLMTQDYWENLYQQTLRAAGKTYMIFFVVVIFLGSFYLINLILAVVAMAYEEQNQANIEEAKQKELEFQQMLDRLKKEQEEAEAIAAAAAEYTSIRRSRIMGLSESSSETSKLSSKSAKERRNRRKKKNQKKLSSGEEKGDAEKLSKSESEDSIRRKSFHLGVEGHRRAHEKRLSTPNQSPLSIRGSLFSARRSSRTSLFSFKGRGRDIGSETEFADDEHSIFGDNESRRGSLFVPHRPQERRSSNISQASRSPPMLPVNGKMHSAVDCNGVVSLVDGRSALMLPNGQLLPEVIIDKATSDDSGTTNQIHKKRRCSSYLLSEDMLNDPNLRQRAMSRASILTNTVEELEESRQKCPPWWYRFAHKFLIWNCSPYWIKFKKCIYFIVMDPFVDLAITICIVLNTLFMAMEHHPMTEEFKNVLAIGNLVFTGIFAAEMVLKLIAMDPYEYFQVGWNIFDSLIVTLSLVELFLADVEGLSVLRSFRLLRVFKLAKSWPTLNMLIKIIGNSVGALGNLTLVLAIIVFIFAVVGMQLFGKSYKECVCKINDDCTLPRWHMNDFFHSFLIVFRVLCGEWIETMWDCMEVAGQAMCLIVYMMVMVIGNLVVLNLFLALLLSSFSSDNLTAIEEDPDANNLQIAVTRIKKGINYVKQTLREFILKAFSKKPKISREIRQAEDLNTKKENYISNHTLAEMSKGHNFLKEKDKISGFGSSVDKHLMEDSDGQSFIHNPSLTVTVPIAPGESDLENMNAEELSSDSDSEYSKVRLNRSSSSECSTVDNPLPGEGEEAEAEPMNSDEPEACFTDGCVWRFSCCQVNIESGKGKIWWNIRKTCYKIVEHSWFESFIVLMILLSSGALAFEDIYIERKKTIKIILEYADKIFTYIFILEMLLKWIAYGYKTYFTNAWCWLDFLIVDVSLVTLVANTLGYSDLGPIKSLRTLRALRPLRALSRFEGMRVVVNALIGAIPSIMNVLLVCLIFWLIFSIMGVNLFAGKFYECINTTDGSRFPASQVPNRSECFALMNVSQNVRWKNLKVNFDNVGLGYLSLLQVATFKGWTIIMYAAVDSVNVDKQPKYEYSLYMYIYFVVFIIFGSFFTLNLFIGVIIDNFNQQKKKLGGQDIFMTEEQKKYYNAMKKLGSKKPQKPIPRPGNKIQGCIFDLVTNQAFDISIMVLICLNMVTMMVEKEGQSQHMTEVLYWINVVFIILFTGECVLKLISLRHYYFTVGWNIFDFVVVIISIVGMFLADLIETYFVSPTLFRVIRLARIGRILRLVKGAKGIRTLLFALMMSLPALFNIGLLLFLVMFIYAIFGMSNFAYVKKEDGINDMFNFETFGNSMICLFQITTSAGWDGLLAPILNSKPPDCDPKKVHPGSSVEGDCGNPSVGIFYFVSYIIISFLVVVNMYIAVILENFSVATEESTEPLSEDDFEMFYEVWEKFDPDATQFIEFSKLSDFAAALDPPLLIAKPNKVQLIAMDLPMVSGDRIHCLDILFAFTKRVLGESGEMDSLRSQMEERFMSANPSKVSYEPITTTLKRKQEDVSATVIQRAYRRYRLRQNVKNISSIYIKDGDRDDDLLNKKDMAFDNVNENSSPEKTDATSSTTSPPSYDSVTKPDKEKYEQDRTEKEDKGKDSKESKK
The target of series [2] is CYP2C9 (Homo sapiens, UniProt P11712). Description: Inhibition of CYP2C9 (unknown origin) using diclofenac substrate at 10 uM. It is filed as ADME. As to conditions: probe diclofenac.
Sequence of CYP2C9 (P11712 whole entry): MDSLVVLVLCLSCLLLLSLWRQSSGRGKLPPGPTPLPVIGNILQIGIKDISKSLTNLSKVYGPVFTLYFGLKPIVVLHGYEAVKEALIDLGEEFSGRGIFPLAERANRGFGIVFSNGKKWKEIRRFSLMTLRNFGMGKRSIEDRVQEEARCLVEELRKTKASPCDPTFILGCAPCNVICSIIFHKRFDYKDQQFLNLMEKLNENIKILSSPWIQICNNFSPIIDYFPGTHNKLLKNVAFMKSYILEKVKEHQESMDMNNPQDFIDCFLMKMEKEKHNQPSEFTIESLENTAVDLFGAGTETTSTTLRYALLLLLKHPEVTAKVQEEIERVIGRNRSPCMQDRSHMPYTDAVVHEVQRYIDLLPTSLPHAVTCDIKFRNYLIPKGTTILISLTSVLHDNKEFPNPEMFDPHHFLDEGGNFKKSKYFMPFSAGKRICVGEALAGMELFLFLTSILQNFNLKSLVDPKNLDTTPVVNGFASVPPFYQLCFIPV
The target of series [3] is Sodium channel protein type 5 subunit alpha (Homo sapiens, UniProt Q14524). Description: Inhibition of human Nav1.5 expressed in HEK cells assessed as reduction in sodium current at -60 mV holding potential by PatchXpress platform based whole cell patch clamp electrophysiological assay. On the set-up: species or system HEK293.
Sequence of Sodium channel protein type 5 subunit alpha (Q14524 whole entry): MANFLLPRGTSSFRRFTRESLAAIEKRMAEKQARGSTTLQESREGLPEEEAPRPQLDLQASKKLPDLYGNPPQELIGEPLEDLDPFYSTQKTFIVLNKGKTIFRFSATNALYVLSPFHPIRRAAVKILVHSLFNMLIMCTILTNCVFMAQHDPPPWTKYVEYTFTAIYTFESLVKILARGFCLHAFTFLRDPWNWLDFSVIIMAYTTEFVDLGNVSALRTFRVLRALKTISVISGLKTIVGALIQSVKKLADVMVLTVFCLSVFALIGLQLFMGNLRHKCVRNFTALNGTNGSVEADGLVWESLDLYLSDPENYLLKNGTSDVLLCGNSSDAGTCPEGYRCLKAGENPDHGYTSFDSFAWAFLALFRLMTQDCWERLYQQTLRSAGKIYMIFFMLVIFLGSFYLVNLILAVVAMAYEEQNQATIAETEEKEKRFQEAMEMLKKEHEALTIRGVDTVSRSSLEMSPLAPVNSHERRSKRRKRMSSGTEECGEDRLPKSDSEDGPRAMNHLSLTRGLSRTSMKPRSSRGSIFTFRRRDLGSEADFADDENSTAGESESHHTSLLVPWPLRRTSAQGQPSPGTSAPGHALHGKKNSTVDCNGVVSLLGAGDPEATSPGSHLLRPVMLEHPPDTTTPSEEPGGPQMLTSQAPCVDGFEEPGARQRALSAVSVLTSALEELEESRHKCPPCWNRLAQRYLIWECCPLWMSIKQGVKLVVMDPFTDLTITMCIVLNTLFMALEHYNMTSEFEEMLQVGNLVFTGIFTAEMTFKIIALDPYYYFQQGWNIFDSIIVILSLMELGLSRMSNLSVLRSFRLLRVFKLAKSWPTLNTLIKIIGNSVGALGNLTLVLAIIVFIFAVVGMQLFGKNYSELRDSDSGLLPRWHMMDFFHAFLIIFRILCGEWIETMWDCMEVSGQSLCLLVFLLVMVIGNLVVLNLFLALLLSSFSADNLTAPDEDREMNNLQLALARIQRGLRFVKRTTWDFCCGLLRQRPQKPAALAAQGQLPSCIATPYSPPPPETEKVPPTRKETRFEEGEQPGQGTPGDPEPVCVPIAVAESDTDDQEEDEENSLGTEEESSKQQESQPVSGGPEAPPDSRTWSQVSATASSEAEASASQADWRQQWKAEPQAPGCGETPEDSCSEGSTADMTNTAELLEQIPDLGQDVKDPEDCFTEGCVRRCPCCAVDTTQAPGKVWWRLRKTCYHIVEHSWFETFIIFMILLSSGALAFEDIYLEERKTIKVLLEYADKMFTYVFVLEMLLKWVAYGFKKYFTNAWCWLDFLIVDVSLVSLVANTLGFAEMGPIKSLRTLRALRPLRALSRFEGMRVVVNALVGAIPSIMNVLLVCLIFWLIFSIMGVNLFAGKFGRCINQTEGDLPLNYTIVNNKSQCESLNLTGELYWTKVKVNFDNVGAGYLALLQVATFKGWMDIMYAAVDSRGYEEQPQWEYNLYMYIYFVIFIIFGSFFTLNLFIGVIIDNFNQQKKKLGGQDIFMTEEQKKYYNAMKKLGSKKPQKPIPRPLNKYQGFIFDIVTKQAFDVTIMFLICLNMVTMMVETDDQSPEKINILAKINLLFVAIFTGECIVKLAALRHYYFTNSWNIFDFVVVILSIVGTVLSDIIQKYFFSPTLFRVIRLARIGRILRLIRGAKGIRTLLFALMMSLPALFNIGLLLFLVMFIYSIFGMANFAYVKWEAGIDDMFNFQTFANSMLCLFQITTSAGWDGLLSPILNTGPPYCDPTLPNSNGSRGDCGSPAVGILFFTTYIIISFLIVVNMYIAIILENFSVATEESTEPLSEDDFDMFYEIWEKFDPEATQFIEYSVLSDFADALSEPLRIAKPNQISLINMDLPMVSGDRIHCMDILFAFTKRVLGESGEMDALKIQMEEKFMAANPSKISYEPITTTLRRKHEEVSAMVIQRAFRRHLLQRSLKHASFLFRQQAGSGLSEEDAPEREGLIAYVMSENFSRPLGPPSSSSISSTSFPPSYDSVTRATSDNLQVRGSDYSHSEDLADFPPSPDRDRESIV
In series [4] the target is CYP2D6 (Homo sapiens, UniProt P10635). Description: Inhibition of CYP2D6 (unknown origin) using bufuralol substrate at 10 uM. As to conditions: probe bufuralol. It is filed as ADME.
Sequence of CYP2D6 (P10635 whole entry): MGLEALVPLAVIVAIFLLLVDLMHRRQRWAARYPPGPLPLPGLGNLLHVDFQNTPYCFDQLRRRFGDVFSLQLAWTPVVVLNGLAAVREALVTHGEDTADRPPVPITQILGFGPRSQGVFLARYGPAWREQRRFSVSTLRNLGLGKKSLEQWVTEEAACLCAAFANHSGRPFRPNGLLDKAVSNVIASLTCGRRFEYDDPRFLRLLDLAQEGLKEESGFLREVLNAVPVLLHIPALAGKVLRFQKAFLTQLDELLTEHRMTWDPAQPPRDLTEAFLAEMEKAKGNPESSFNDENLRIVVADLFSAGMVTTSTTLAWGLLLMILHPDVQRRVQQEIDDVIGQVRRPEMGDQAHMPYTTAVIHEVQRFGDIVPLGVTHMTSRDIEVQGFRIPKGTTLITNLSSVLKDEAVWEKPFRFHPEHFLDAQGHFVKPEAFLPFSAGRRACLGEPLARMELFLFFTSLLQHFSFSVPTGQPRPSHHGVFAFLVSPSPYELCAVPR
The target in series [5] is CYP3A4 (Homo sapiens, UniProt P08684). Description: Inhibition of CYP3A4 (unknown origin) using midazolam substrate at 10 uM. As to conditions: probe midazolam. The series is classed as ADME.
For series [6], the target named is CYP2C19 (Homo sapiens, UniProt P33261). Description: Inhibition of CYP2C19 (unknown origin) using omeprazole substrate at 10 uM. The series is classed as ADME. The conditions noted are these: probe omeprazole.

On to `O=S(=O)(Nc1ncns1)c1cc(F)c(OC[C@H]2CNCC[C@H]2c2ccc(Cl)cc2)cc1F`, for which the pIC50 in series [1] is 6.63.

Turning to `O=S(=O)(Nc1ncns1)c1cc(F)c(OCC2(F)CNCCC2c2ccc(F)cc2)cc1F` (stereo not drawn), the inhibition at 10 µM in series [2] turned out to be 99%; in series [4], 78%; in series [5] it was 94%; in series [6] it was 71%. The pIC50 in series [3] was less than 5.00.

With `O=S(=O)(Nc1ncns1)c1cc(F)c(OC[C@@H]2CNCC[C@H]2c2ccc(Cl)cc2)cc1F` (racemic), the inhibition at 10 µM in series [2] was 100%; in series [4] it was 93%; in series [5], 94%; in series [6] it was 75%.

Regarding `O=S(=O)(Nc1ncns1)c1cc(F)c(OC[C@H]2CNCC[C@@H]2c2ccc(F)c(F)c2)cc1F` (relative stereo), the inhibition at 10 µM in series [2] was 96%; in series [4] it was 85%; in series [5], 90%; in series [6] it was 74%. Also, in series [3], the pIC50 was less than 5.00.

With `O=S(=O)(Nc1ncns1)c1cc(F)c(OC[C@H]2CNCC[C@@H]2c2ccc(Cl)c(F)c2)cc1F` (relative stereo), the inhibition at 10 µM in series [2] amounted to 100%; in series [4], 85%; in series [5], 96%; in series [6], 60%. For the same molecule, in series [3], the pIC50 was less than 5.00.

Consider `O=S(=O)(Nc1ncns1)c1cc(F)c(OC[C@@H]2CNC[C@H]2c2ccc(Cl)cc2)cc1F` (relative stereo), for which the inhibition at 10 µM in series [2] was 100%; in series [4] it was 97%; in series [5], 93%; in series [6] it was 90%. Moreover, the negative-log IC50 (pIC50) in series [1] is 7.30.

With `CC(C)(C)OC(=O)N1CC[C@@H](c2ccc(Cl)cc2)[C@H](COc2cc(F)c(S(=O)(=O)Nc3ncns3)cc2F)C1` (relative stereo), the inhibition at 10 µM in series [2] was determined as 100%; in series [4], 78%; in series [5] it was 98%; in series [6], 100%. Further, the negative logarithm of the IC50 (pIC50) in series [1] was 6.79.

Regarding `O=S(=O)(Nc1ncns1)c1cc(F)c(OC[C@@H]2CN(CC(F)F)CC[C@H]2c2ccc(Cl)cc2)cc1F` (relative stereo), the inhibition at 10 µM in series [2] came to 100%; in series [4], 61%; in series [5], 98%; in series [6], 88%. The pIC50 in series [1] is 7.42.

On to `Cc1nsc(NS(=O)(=O)c2cc(F)c(OC[C@@H]3CNCC[C@H]3c3ccc(Cl)cc3)cc2F)n1` (relative stereo), for which the inhibition at 10 µM in series [2] worked out at 100%; in series [4] it was 55%; in series [5] it was 61%; in series [6], 73%. Further, the pIC50 in series [1] was 6.71.

`Cc1cnc(NS(=O)(=O)c2cc(F)c(OC[C@@H]3CNCC[C@H]3c3ccc(Cl)cc3)cc2F)s1` (relative stereo): the inhibition at 10 µM in series [2] stood at 99%; in series [4] it was 48%; in series [5] it was 22%; in series [6], 42%.

In the case of `O=S(=O)(Nc1ncc(Cl)s1)c1cc(F)c(OC[C@@H]2CNCC[C@H]2c2ccc(Cl)cc2)cc1F` (relative stereo), the inhibition at 10 µM was 100% in series [2], 40% in series [4], 11% in series [5] and 20% in series [6].

As to `Cc1cc(NS(=O)(=O)c2cc(F)c(OC[C@@H]3CNCC[C@H]3c3ccc(Cl)cc3)cc2F)no1` (relative stereo), the inhibition at 10 µM in series [2] amounted to 80%; in series [4] it was 38%; in series [5], 24%; in series [6], 29%. Also, in series [1], the pIC50 is 5.72.

Take `O=S(=O)(Nc1cccnn1)c1cc(F)c(OC[C@@H]2CNCC[C@H]2c2ccc(Cl)cc2)cc1F` (relative stereo): the inhibition at 10 µM is 49% in series [2], 37% in series [4], 13% in series [5] and 36% in series [6]. The negative logarithm of the IC50 (pIC50) in series [1] is 6.77.

In general, pIC50 refers to the negative decadic logarithm of the IC50, by convention in mol/L. Usually inhibition stands for the drop in the measured response relative to a control, in per cent. Read a high inhibition as a response far below the control.
